Experimental data taken from US20100069304A1, “PROTECTIVE EFFECTS OF INHIBITING THE INTERACTION OF CALMODULIN AND MUTANT HUNTINGTIN PROTEIN” (priority 2008, published 2010).
“Also recorded” adds a separate entry of the source.

Experiments:
[1] = target: T1, htt-exon1-44Q binding to CaM (Homo sapiens, UniProt P42858, INS38QQQQQQQQQQQQQQQQQQQQQQQ); experiment: In vitro mutant huntingtin-calmodulin binding (calmodulin-agarose)
T1 construct: encoding exon 1 of huntingtin with 44 glutamine residues; MBP; host or cells: Escherichia coli
T1 sequence (P42858 with tags, fused parts or gaps with the stated changes limits assumed): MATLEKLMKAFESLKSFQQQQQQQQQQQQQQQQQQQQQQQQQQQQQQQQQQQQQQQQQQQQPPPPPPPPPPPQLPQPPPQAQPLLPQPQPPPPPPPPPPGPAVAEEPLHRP

TGase = TGase activity in mouse striatal homogenates; format: in vivo; conditions: 500 μM GTPγS, all mouse groups
Protocol: TGase II Activity Assay. TGase activity was measured by detecting the incorporation of a biotinylated TGase amine substrate, 5-(biotinamido)pentylamine (Pierce, Rockford, Ill.) into N,N'-dimethylcasein (Calbiochem, San Diego, Calif.) as previously described (Dudek et al., 2009). 96-well Immulon 4 HBX plates (Dynatech, Franklin, Mass.) were coated with 100 μl of N,N′-dimethylcasein (20 mg/ml) in 0.05M sodium bicarbonate, and stored at 4° C. overnight. After the unbound N,N′-dimethylcasein was discarded, the plate was washed with PBS and blocked with nonfat dry milk (2% milk in PBS) for 1 hour at 37° C., followed by 3 washes with PBS. Striatum from the various mice were homogenized in 0.1 M Tris-HCl pH 8.3, 1 mM EDTA, 1 mM PMSF, and protease inhibitor cocktail. Striatal homogenates (15 μg of protein/sample) were added to the plate with 0.1 M Tris-HCl pH 8.5, 0.15 M NaCl, 5 mM DTT, 0.5 mM biotin-labeled pentylamine, and 5 mM CaCl2. The mixture was incubated for 1 hour at 37° C. The plate was washed with TBS and 0.001% Tween followed by incubation with streptavidin conjugated to HRP (Jackson ImmunoResearch, West Grove, Pa.) for 1 hour at room temperature. […] Then the reaction was stopped with 3N sulfuric acid and the absorbance was read at 450 nm. […] Each sample was measured in triplicate.

HD transgenic mice = conditions: cited from earlier work
[2] = system: cells expressing mutant huntingtin and TG; conditions: cited from earlier work
transglutaminase = experiment: In situ transglutaminase assay in intact cells; format: cell-based, human; conditions: SHSY5Y-htt-N63-148Q cells
Protocol: In situ transglutaminase assay. In this in situ assay, transglutaminase activity is measured in intact cells via incorporation of a polyamine and the presence of the transglutaminase-catalyzed bond. Forty-two hours post viral infection, cells were treated with 2 mM 5-(biotinamido)pentylamine, a biotinylated polyamine (Pierce, Rockford, Ill.), and 6 hours post polyamine treatment, cells were harvested and lysed in 0.1 M Tris-HCl pH 8.3, 1 mM EDTA, 1 mM PMSF, and protease inhibitor cocktail. 96-well Immulon 4 HBX plates (Dynatech, Franklin, Mass.) were coated with anti-ε-(γ-glutamyl)lysine (81D4) antibody (CovalAb, Lyon, France) in 0.1 M Na2HPO4.7 H2O pH 9 overnight at 4° C. Then the plates were washed with PBS and blocked with 2% milk in PBS for 1 hour at room temperature, followed by 3 washes with PBS with 0.0375% Tween. Cell lysates (50 μg of protein/sample/well) were added to the wells in triplicates and incubated for 1 hour at 37° C. The plate was washed with PBS and 0.0375% Tween, followed by incubation with streptavidin conjugated to HRP (Jackson ImmunoResearch, West Grove, Pa.) for 1 hour at room temperature. After final washes, a 1×TMB substrate solution (eBioscience, SanDiego, Calif.) was added and color was allowed to develop for 5-10 minutes. The reaction was stopped with 3 N sulfuric acid and the absorbance was read at 450 nm.

[3] = target: T2, mutant huntingtin (htt-N63-148Q) (Homo sapiens, UniProt P42858, INS26QQQQQQQQQQ/INS27QQQQQQQQQQ/INS28QQQQQQQQQQ/INS29QQQQQQQQQQ/INS30QQQQQQQQQQ/INS31QQQQQQQQQQ/INS32QQQQQQQQQQ/INS33QQQQQQQQQQ/INS34QQQQQQQQQQ/INS35QQQQQQQQQQ/INS36QQQQQQQQQQ/INS37QQQQQQQQQQ/INS38QQQQQQQ); experiment: TG-modified huntingtin (81D4 immunoprecipitation and immunoblot) in transfected HEK-293T cells; format: cell-based; conditions: HEK-293T cells with htt-N63-148Q, TG2 and CaM construct vs vector control
T2 construct: myc; expressed in transfected cells; host or cells: HEK-293T
T2 sequence (P42858 with tags, fused parts or gaps limits assumed, stated change not applied): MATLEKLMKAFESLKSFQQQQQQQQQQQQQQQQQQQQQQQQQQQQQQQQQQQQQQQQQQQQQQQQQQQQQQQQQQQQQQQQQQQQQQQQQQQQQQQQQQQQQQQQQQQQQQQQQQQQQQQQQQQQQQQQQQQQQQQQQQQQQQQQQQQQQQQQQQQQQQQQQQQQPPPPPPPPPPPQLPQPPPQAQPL
Protocol: HEK-293T cells were grown in OptiMEM reduced serum medium (Invitrogen, Carlsbad, Calif.) containing nonessential amino acids, antimycotic and antibiotic agents, and 10% FBS, in the presence of 5% CO2 at 37° C. Cells were grown to 80-90% confluency and transfected using Lipofectamine Plus (Invitrogen, Carlsbald, Calif.). […] Forty-eight hours after transfection, cells were harvested and resuspened in lysis buffer containing 50 mM Tris-HCl, pH 8.8, 100 mM NaCl, 5 mM MgCl2, 0.05% NP-40, 1 mM EDTA (Tang T S, Tu H, Chan E Y, et al. Huntingtin and huntingtin-associated protein 1 influence neuronal calcium signaling mediated by inositol-(1,4,5)triphosphate receptor type 1. Neuron 2003;39:227-239) and 1:1,000 protease inhibitor mixture (Sigma, St. Louis, Mo.). […]
Immunoblots. […] Signal was detected using enhanced chemiluminescence (ECL) Western blotting detection reagents (Amersham Biosciences, Piscataway, N.J.). Immunoblots were quantified by calculating the sum of the densities of all of the pixels within each protein band as the integrated optical density (IOD), using Scion Image for Windows (Scion, Frederick, Md.). Film background IOD was measured and subtracted from each band IOD. Measurements were done in triplicate and the mean was calculated.

In the case of `Cl.NCCCCCCNS(=O)(=O)c1cccc2ccccc12` [W-5, N-(6-Aminohexyl)-1-naphthalenesulfonamide hydrochloride], the “amount of CaM-bound htt-exon1-44Q” value ([1]; 664 μM W-5 along with 10 μM of CaM-peptide) is reported as “significantly increased” and the “amount of CaM-bound htt-exon1-44Q” value ([1]; W-5 alone) is reported as “did not affect the amount of CaM-bound htt-exonl-44Q”.

For `Nc1nc2c(ncn2[C@@H]2O[C@H](COP(=O)(O)OP(=O)(O)OP(O)(O)=S)[C@@H](O)[C@H]2O)c(=O)[nH]1` [GTPγS], the “reduction of TGase activity” value (TGase) was “at least 60%”.

In the case of `NCCSSCCN` [cystamine], the survival (HD transgenic mice) is given as “increase survival”, the cell survival [2] is given as “increased cell survival” and the cross-linking of huntingtin [2] is given as “decreased the cross-linking of huntingtin”.

In the case of “GDTVEREKDAYNSLEGFDNTIHTLRADIGMVEEVAKSKRDEEFLE [scram-CaM-peptide]”, the “total TG activity in situ between infections” value (transglutaminase) is reported as “no significant difference in total TG activity”.

With “CaM-N-term: calmodulin fragment: first 76 amino acids, contains the first two Ca2+ binding sites” the “TG-modified huntingtin compared to control cells (in words)” value [3] was “no significant decrease in TG-modified huntingtin, but rather an increase; also recorded: did not reduce the TG-catalyzed modifications of huntingtin”.
